Source: patent US12630523B2, “Isoquinoline derivatives for use as antiviral and antitumour agents” (priority 2021, dated 2026)
Read-outs that look alike come from different tables or passages of the source.

Key:
Assay type in all cases: cell-based
[1] = tested on: SARS-CoV-2 isolate BetaCov/Belgium/GHB-03021/2020; experiment: microbe, parasite or virus in culture; conditions: 1.25 μM (non-toxic compound concentration), n4; for inhibition at 1.25 µM: Severe acute respiratory syndrome coronavirus 2
HPV16 E7 protein = biological target: T1, HPV16 E7 protein (Human papillomavirus type 16, UniProt P03129); conditions: CaSki cells; for % Dad: adjusted degradation, CHX steady state set to 100% degradation
T1 construct: endogenous in cells; host or cells: CaSki cells (HPV16-positive cervical carcinoma)
T1 sequence (P03129 whole entry): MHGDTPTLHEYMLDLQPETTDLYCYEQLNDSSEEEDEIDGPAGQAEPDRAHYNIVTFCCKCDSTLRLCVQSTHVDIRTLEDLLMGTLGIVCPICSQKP
Method: For intracellular antibody labeling, 0.5×10^6 cells are washed once with 1 ml ice-cold PBS. Cells are centrifuged at 350×g for 5 minutes at 4° C. and then fixed in 1% paraformaldehyde (1 ml/10^6 cells) for 20 minutes at 4° C. Cells are washed with 1 ml ice-cold PBS and centrifuged at 350×g for 5 minutes at 4° C. To permeabilize cells, 100% ice-cold methanol (1 ml/10^6 cells) is added to the cells and incubated for 20 minutes at 4° C. followed by centrifugation at 350×g for 5 minutes at 4° C. Cells are washed with 1 ml ice-cold PBS, centrifuged at 350×g for 5 minutes at 4° C. and resuspended in 0.1% saponin+2% FBS in PBS (ice-cold). Cells are left for 20-30 minutes at room temperature to reduce the background signal and then centrifuged at 350×g for 5 minutes at 4° C. The primary antibody (mAb_HPV16E7-1 (VS13004); concentration 1 μg/μl) is diluted in 0.1% saponin+2% FBS (dilution 0.25 μg/50 μl of incubation buffer per 1×10^6 cells (5 ng/μl)). Cells are incubated with primary antibody for 30 minutes at room temperature, washed with 0.1% saponin+2% FBS and centrifuged at 350×g for 5 minutes at 4° C. The secondary antibody (FITC conjugated goat anti-mouse IgG1-IgM, BD, cat. #555988) is diluted in 0.1% saponin+2% FBS (dilution 1:50). Cells are incubated with secondary antibody for 30 minutes at room temperature, washed once with 0.1% saponin+2% FBS, once with PBS and centrifuged at 350×g for 5 minutes at 4° C.
Cells are resuspended in 700 μl PBS prior to CF analysis with a Beckman Coulter FC 500 MPL, (excitation laser 488 nm). Data analysis is done using the Beckman Coulter software packages MXP for acquisition and CXP for data analysis which includes MFI calculation. Detection of HPV-E7 protein expression is based on morphology back-gating of FL1 histogram (logarithmic scale) with gating for dot plot FS (Forward Scatter) log/SS (Sideward Scatter) log and gating for histograms SS log.
In order to define the level of E7 protein expression and to study the extent of E7 protein steady state level reduction in E7 expressing cells in the presence of various compounds, FC analysis is implemented using the intracellular antibody labeling procedure for monoclonal antibodies to HPV E7. E7 signal intensities are analyzed from the obtained FL1 histograms at logarithmic scale. The FL1 single histogram graph represents the variation in the mean fluorescence intensity (MFI) channel for cells treated with selected compounds compared to cells not incubated with primary antibodies but incubated with secondary, which allows to test for auto-fluorescence, and non-compound treated cells as controls. Non-primary antibody-stained cells are used to set the acquisition parameters to zero. Decrease of the mean fluorescence intensity channel corresponds to a decrease in the expression of HPV16 E7 protein. Degradation of E7 in cells is calculated as percent (%) reduction in MFI(x-Me) using the following formulas: % Drel=(T−C)/T*100; i) relative degradation: % Dad=(T−C)/(T−CHX)*100; ii) adjusted degradation: • Drel=relative degradation, • Dad=adjusted degradation assuming CHX % Drel=100; • T=MFI of non-treated cells; • C=MFI of compound treated cells; • CH=MFI of cycloheximide (CHX) treated cells;
For comparison within one experiment i) the % relative degradation (Drel) is sufficient, whereas for comparison between two or more experiments ii) the adjusted degradation (Dad) is used and CHX steady state is set to a 100% degradation parameter.
1×10^6 freshly seeded CaSki cells (ATCC CRL-7915), are grown in 10 cm diameter cell culture dishes in RPMI1640, 10% FCS medium at 37° C. 5% CO2 overnight and then incubated in the presence of 10 μM Cycloheximide (CHX) 10 μM OC246 or with vehicle alone for four hours at 37° C. 5% CO2. Following this E7 protein is assessed by cytofluorimetric analysis using intracellular HPV16 E7 antibody labeling. […]

[2] = tested on: CaSki (ATCC CRM-CRL-1550); experiment: Monolayer assay using Sulphorhodamine B (SRB) staining, CaSki; conditions: Homo sapiens, Ca-Ski
Method: Various cell culture cells grown as monolayers are harvested from exponential growing cultures after treatment with various OC compounds at different concentrations. For this depending on the cell line, 10.000 to 30.000 cells were plated in 96-well flat-bottom microtiter plates. After a 24 h recovery period to allow cells to resume exponential growth, supernatants are discarded and 100 μl of culture medium (eight control wells/plate) or culture medium with the test compound are added by a liquid handling robotic system (Microlab® Starlet, Hamilton) and treatment continued for 72 hrs. Compounds are applied at 9 concentrations and eight wells/concentration). At least three independent experiments are performed. For SRB staining, cells are fixed with SRB01 (Tab. 5) for 1 h at 4° C. (final concentration of TCA=10%) washed with a plate washer (Hydroflex, Tecan©) for five times with H2O; and stained with 100 μl of SRB02 at room temperature for 10 min following 4 washes in SRB03 and finally 100 μl of developer solution SRB04 for 5 minutes with shaking. Optical density is assessed using a plate-reader (Sunrise, Tecan©) at 540 nm.
Concentrations required for half maximal response of the compound for cell growth inhibition (EC50) is calculated by non-linear regression (log[conc. of inhibitor] versus response (% T/C)) using the analysis software GraphPad Prism®, Prism 5 for windows, version 5.01 (GraphPad Software Inc., CA).

[3] = SRB assay from Caski cells, “0” = no activity detected with the concentrations tested, read-out: EC50 mean

SMILES | % Dad (HPV16 E7 protein) | inhibition at 1.25 µM [1] | other results
COc1ccc2cc1Oc1ccc(cc1)C[C@H]1c3c(cc4c(c3Oc3cc5c(cc3OC)CCN(C)[C@@H]5C2)OCO4)CCN1C [Cepharantin, reference compound] |  |  | % Inhibition [1]: 2.32%
Cc1ccc(CN2C(=O)c3ccccc3C(C(=O)NCCN(C)C)C2c2ccc(C(F)(F)F)nc2)cc1 (centres unmarked) [OC381] | 41% | 43.7% | EC50 ([2]; read-out: EC50 mean [nM]): 17500 nM
CC(=O)Nc1ccc2c(c1)C(=O)N(Cc1ccc(C)cc1)[C@@H](c1ccc(C(F)(F)F)cc1)[C@@H]2C(=O)Nc1cccc(N2CCN(C)CC2)c1 (relative stereo) [OC970] | 20% | 3.03% | EC50 ([2]; read-out: EC50 mean [nM]): 5550 nM
Cc1ccc(CN2C(=O)c3ccccc3C(C(=O)NCc3cccnc3)C2c2ccc(Cl)cc2)cc1 (centres unmarked) [OC255] | 2% |  | 
Cc1ccc(CN2C(=O)c3ccccc3C(C(=O)NCCN3CCCC3)C2c2ccc(Cl)cc2)cc1 (centres unmarked) [OC251] | 1% |  | 
COCCNC(=O)C1c2ccccc2C(=O)N(Cc2ccc(C)cc2)C1c1ccc(Cl)cc1 (centres unmarked) [OC252] | 0% |  | 
CN(C)CCNC(=O)C1c2ccccc2C(=O)N(Cc2ccc(N)cc2)C1c1ccc(C(F)(F)F)cc1 (centres unmarked) [OC380] | 3% | 72.6% | EC50 [2, 3]: 11400 nM
CN(C)CCNC(=O)C1c2ccccc2C(=O)N(Cc2ccc(C(F)(F)F)cc2)C1c1ccc(C(F)(F)F)cc1 (centres unmarked) [OC378] | 48% | 43.4% | EC50 [2, 3]: 5690 nM
COc1cc2c(cc1OC)[C@@H](C(=O)Nc1cccc(N3CCN(C)CC3)c1)[C@H](c1ccc(C(F)(F)F)cc1)N(Cc1ccc(C)cc1)C2=O (relative stereo) [OC971] | 26% |  | 
Cc1ccc(CN2C(=O)c3ccccc3C(C(=O)N3CCN(C)CC3)C2c2ccc(Cl)cc2)cc1 (centres unmarked) [OC256] | 8% |  | 
c1c2c(cc3c1OCO3)-c1cc3ccc4c(c3c[n+]1CC2)OCO4 [Coptisin, reference compound] |  |  | % Inhibition [1]: 98.97%
Cc1ccc(CN2C(=O)c3ccccc3C(C(=O)N3CCN(C=O)CC3)C2c2ccc(Cl)cc2)cc1 (centres unmarked) [OC258] | 0% |  | 
C[C@@H]1C[C@@H]([C@H](O)CC2CC(=O)NC(=O)C2)C(=O)[C@@H](C)C1 [CHX, Cycloheximide, reference compound] |  |  | % Drel (relative degradation) (HPV16 E7 protein; 10 μM, four hours): 78.78%; % Dab (adjusted degradation) (HPV16 E7 protein; 10 μM, four hours, CHX set to 100): 100%; MFI (mean fluorescence intensity) of E7 signal (HPV16 E7 protein; 10 μM, four hours, vehicle T 8.06): 1.71
CO[C@H]1C[C@@H]2CC[C@@H](C)[C@@](O)(O2)C(=O)C(=O)N2CCCC[C@H]2C(=O)O[C@H]([C@H](C)C[C@@H]2CC[C@@H](O)[C@H](OC)C2)CC(=O)[C@H](C)/C=C(\C)[C@@H](O)[C@@H](OC)C(=O)[C@H](C)C[C@H](C)/C=C/C=C/C=C/1C [Rapamycin, reference compound] |  | 21.1% | 
COc1ccc2c(c1)C(=O)N(Cc1ccc(C)cc1)[C@@H](c1ccc(C(F)(F)F)cc1)[C@@H]2C(=O)Nc1cccc(N2CCN(C)CC2)c1 (relative stereo) [OC969] | 66% |  | 
O=C(NOCC1CC1)c1ccc(F)c(F)c1Nc1ccc(I)cc1Cl [CI-1040, 2-(2-Chloro-4-iodophenylamino)-N-(cyclopropylmethoxy)-3,4-difluorobenzamide, reference compound] |  | 146% | 
Cc1ccc(C2C(C(=O)NCCN(C)C)c3ccccc3C(=O)N2Cc2ccc(C(F)(F)F)cc2)cc1 (centres unmarked) [OC379] | 26% | 33.4% | EC50 [2, 3]: 11900 nM
CN(C)CCNC(=O)C1c2ccccc2C(=O)N(Cc2ccc(N(C)C)cc2)C1c1ccc(C(F)(F)F)cc1 (centres unmarked) [OC382] |  | 41.2% | EC50 [2, 3]: 2300 nM
Cc1ccc(CN2C(=O)c3ccccc3C(C(=O)NCCN(C)C)C2c2ccc(C(F)(F)F)cc2)cc1 (centres unmarked) [OC377] | 35% | 81.6% | EC50 [2, 3]: 6750 nM
CS(=O)(=O)O.Cc1c(O)cccc1C(=O)N[C@@H](CSc1ccccc1)[C@H](O)CN1C[C@H]2CCCC[C@H]2C[C@H]1C(=O)NC(C)(C)C [Neifinavir-Mesylat, reference compound] |  |  | % Inhibition [1]: 9.49%
Cc1ccc(CN2C(=O)c3ccccc3C(C(=O)NCCN(C)C)C2c2ccc(Cl)cc2)cc1 (centres unmarked) [OC250] | 19% |  | 
Cc1ccc(CN2C(=O)c3ccccc3C(C(=O)Nc3cccc(N4CCN(C)CC4)c3)C2c2ccc(Br)cc2)cc1 (centres unmarked) [OC247] | 6% | 30.6% | EC50 ([2]; read-out: EC50 mean [nM]): 6730 nM
Cc1ccc(CN2C(=O)c3ccccc3C(C(=O)Nc3cccc(N4CCN(C)CC4)c3)C2c2ccc(Cl)c(Cl)c2)cc1 (centres unmarked) [OC245] | 0% |  | 
Cc1ccc(CN2C(=O)c3ccccc3C(C(=O)NCc3ccc(N(C)C)cc3)C2c2ccc(Cl)cc2)cc1 (centres unmarked) [OC254] | 16% |  | 
